Measurements: publication PMC2120106 (The Journal of Cell Biology, 1994)

Key:
[1] = system: vacuole-to-vacuole fusion; assay: in vitro vacuole-to-vacuole fusion assay; assay type: biochemical, Saccharomyces cerevisiae; details: for effect on in vitro vacuole-to-vacuole fusion (in words): added to standard reaction, Figs. 5, 7 A or data not shown; for effect on inter-vacuole fusion: Fig. 7 A
[2] = system: isolated vacuoles; assay: microscopic in vitro fusion assay with CDCFDA-labeled vacuoles; parameters: species or system Saccharomyces cerevisiae; details: standard fusion reaction, 120 min; for vacuole fusion / morphology seen by fluorescence microscopy: 20 uM, Fig. 6 D, E, G, H
[3] = system: G-proteins; details: cited from earlier work; for stimulation of G-proteins in vitro: ref Oppi et al., 1992

benzalkonium chloride [BAC]
concentration of maximal inhibition of inter-vacuolar fusion ([1]; alone in standard fusion assay, Fig. 8): 10 #g/ml

CO/C1=C\C(C)=C\[C@@H](C)[C@@H](O)[C@@H](C)C/C(C)=C/C=C/[C@H](OC)[C@@H]([C@@H](C)[C@@H](O)[C@H](C)[C@@]2(O)C[C@@H](O)[C@H](C)[C@@H](C(C)C)O2)OC1=O [bafilomycin Al]
effect on in vitro vacuole-to-vacuole fusion (in words) ([1]; 25C, 120 min): inhibited vacuole fusion in vitro | vacuole fusion / morphology seen by fluorescence microscopy [2]: blocked vacuole fusion

Nc1nc2c(ncn2[C@@H]2O[C@H](COP(=O)(O)OP(=O)(O)OP(O)(O)=S)[C@@H](O)[C@H]2O)c(=O)[nH]1 [GTP3,S, Guanosine 5'-0-(3-thiotriphosphate)]
vacuole fusion seen by fluorescence microscopy ([2]; 1.0 mM, Fig. 6 F): fusion was largely inhibited

INLQALALAALAQALL-NH2 [Mas7[Q4;Q11]]
relief of the inhibition caused by mas7 ([1]; both compounds added together, data not shown): did not relieve | effect on inter-vacuole fusion ([1]; concentrations up to 50 uM, standard reaction): did not inhibit | effect on inter-vacuole fusion ([1]; very high concentration, 100 uM, standard reaction): did inhibit | stimulation of G-proteins ([3]; ref Higashijima, T., personal communication): does not stimulate G-proteins | vacuole fusion / morphology seen by fluorescence microscopy [2]: only a weak influence

mastoparan
effect on in vitro vacuole-to-vacuole fusion (in words) ([1]; 25C, 120 min): inhibited

LKIALNLKALIAAK-NH2 [MAS-PEP2]
effect on in vitro vacuole-to-vacuole fusion (in words) ([1]; 25C, 120 min): inactive in the fusion assay | stimulation of G-proteins in vitro [3]: do not stimulate G-proteins in vitro

F [fluoride]
effect on in vitro vacuole-to-vacuole fusion (in words) ([1]; 25C, 120 min): inhibitory

NILALAKALIKALK-NH2 [mas-PEP8]
stimulation of G-proteins in vitro [3]: potent G-protein activators

Triton X-100
influence on the inhibition of fusion by mastoparan ([1]; 0-30 ug/ml plus 20 uM mastoparan, Fig. 8): did not influence the effects of mastoparan on fusion | fusion in standard fusion reactions ([1]; added at 0.01%, data not shown): no fusion could be observed | effect on vacuole fusion ([1]; detergent control, up to highest concentration tested, 30 ug/ml, Fig. 8): did not inhibit vacuole fusion

NC[C@@H]1O[C@H](O[C@H]2[C@@H](O)[C@H](O[C@@H]3[C@@H](O)[C@H](N)C[C@H](N)[C@H]3O[C@H]3O[C@H](CN)[C@@H](O)[C@H](O)[C@H]3N)O[C@@H]2CO)[C@H](N)[C@@H](O)[C@@H]1O [Neomycin]
concentration that blocks inter-vacuole fusion ([1]; standard reaction, 25C, 120 min, Fig. 5 A): 0.2 mM | vacuole fusion seen by fluorescence microscopy ([2]; 0.6 mM, Fig. 6 C): blocked vacuole fusion

N#CC(C#N)=NNc1cccc(Cl)c1 [CCCP, carbonyl cyanide m-chlorophenyl-hydrazone]
effect on in vitro vacuole-to-vacuole fusion (in words) ([1]; 25C, 120 min): inhibited vacuole fusion in vitro | vacuole fusion / morphology seen by fluorescence microscopy [2]: blocked vacuole fusion

Lithium
effect on in vitro vacuole-to-vacuole fusion (in words) ([1]; 25C, 120 min): did not influence the fusion reactions

LNAKLKAIALALIK-NH2 [mas-PEP7]
effect on in vitro vacuole-to-vacuole fusion (in words) ([1]; 25C, 120 min): inactive in the fusion assay | stimulation of G-proteins in vitro [3]: do not stimulate G-proteins in vitro
